Test results taken from patent US20260055108A1, “TRIAZINE COMPOUNDS AND USES THEREOF” (HUTCHMED LIMITED, priority 2022, published 2026).
Where two headings read alike, the source gives them in different places.

Experiments:
[1] = target: Recombinant human Menin protein (2-610) / MLL polypeptide binding (Homo sapiens (Human), UniProt O00255); assay: Menin and MLL protein binding at a molecular level (fluorescence polarization method); conditions: inhibition of Menin / MLL polypeptide binding
Method in brief: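 Binding of recombinant human Menin (2-610) to 6-FAM-labelled MLL peptide measured by fluorescence polarization (ex 480/em 535 nm) in Tris/NaCl/TCEP buffer, pH 7.5, 2% DMSO. Compound preincubated with Menin 30 min at room temperature, then peptide added for 30 min in the dark. Tested at 1.000 down to 0.0005 μM final.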

[2] = test system: MV-4-11 cells (human acute myelogenous leukemia cell line carrying MLL-AF4 mutation); assay: Cell proliferation assay, MV-4-11 (CellTiter-Glo); type: cell-based; conditions: Homo sapiens, MV4-11, 72 h
Method in brief: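 MV-4-11 cells (3000/well, IMDM with 10% HIFBS and 50 μM β-mercaptoethanol) exposed to compound at 1.100–0.001 μM final, 0.1% DMSO, for 3 days at 37°C. Viability read by CellTiter-Glo luminescence on day 0 and day 3, normalised to day-0 and untreated wells.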

[3] = MV-4-11 cells, 3 days treatment, CellTiter-Glo, read-out: GI50

Recombinant human Menin protein (2-610) / MLL polypeptide binding, sequence (O00255 2-610): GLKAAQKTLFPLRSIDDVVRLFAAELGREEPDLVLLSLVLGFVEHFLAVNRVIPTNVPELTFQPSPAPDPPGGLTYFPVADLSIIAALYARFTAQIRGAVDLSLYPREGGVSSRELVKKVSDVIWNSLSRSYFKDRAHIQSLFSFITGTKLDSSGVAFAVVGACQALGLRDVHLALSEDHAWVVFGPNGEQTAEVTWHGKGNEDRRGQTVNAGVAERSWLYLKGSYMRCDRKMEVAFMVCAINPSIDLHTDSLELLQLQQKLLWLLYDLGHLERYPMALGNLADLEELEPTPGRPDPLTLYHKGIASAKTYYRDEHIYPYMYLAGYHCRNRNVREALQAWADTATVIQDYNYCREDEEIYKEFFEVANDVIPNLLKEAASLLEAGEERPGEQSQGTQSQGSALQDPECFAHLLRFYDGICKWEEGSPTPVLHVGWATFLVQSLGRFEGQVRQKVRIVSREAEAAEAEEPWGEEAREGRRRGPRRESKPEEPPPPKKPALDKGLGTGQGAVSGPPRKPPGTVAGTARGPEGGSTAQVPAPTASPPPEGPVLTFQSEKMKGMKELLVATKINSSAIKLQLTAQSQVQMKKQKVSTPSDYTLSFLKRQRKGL

SMILES | IC50 [1] [nM] | GI50 [2, 3] [nM] | GI50 [2] [nM]
CCN(C(=O)c1cc(F)ccc1Oc1nncnc1N1CC2(CCN(CC3CCN(c4ccnc(C(C)(C)O)c4)CC3)CC2)C1)C(C)C [Compound 120] | 15.2 | 36 | –
CCN(C(=O)c1cc(F)ccc1Oc1nncnc1N1CC2(CCN(CC3CCN(C(=O)COC)CC3)CC2)C1)C(C)C [Compound 9] | 37.6 | 99 | –
CCN(C(=O)c1cc(F)ccc1Oc1nncnc1N1CC2(CCN(CC3CCN(c4cccc(N)n4)CC3)CC2)C1)C(C)C [Compound 164, 2-((5-(7-((1-(6-aminopyridin-2-yl)piperidin-4-yl)methyl)-2,7-diazaspiro[3.5]nonan-2-yl)-1,2,4-triazin-6-yl)oxy)-N-ethyl-5-fluoro-N-isopropylbenzamide] | 4.6 | 27 | –
CCN(C(=O)c1cc(F)ccc1Oc1nncnc1N1CC2(CCN(CC3CCN(c4cc(C(N)=O)ccn4)CC3)CC2)C1)C(C)C [Compound 52] | 0.9 | 3 | –
CCN(C(=O)c1cc(F)ccc1Oc1nncnc1N1CC2(CCC(CN3CCN(c4ccccn4)CC3)CC2)C1)C(C)C [Compound 173, N-ethyl-5-fluoro-N-isopropyl-2-((5-(7-((4-(pyridin-2-yl)piperazin-1-yl)methyl)-2-azaspiro[3.5]nonan-2-yl)-1,2,4-triazin-6-yl)oxy)benzamide] | 750 | – | 292
CCN(C(=O)c1cc(F)ccc1Oc1nncnc1N1CC2(CCN(CC3CCN(C[C@@H](O)CC#N)CC3)CC2)C1)C(C)C [Compound 39] | 68.3 | 97 | –
CCN(C(=O)c1cc(F)ccc1Oc1nncnc1N1CC2(CCN(CC3CCN(C(=O)c4cnn5cccnc45)CC3)CC2)C1)C(C)C [Compound 169, N-ethyl-5-fluoro-N-isopropyl-2-((5-(7-((1-(pyrazolo[1,5-a]pyrimidine-3-carbonyl)piperidin-4-yl)methy)-2,7-diazaspiro[3.5]nonan-2-yl)-1,2,4-triazin-6-yl)oxy)benzamide] | 166 | 108 | –
CCN(C(=O)c1cc(F)ccc1Oc1nncnc1N1CC2(CCN(Cc3ccc(-c4ccccn4)cc3)CC2)C1)C(C)C [Compound 124] | > 200 | 505 | –
CCN(C(=O)c1cc(F)ccc1Oc1nncnc1N1CC2(CCN(CC3CCN(c4ccc(Br)c(=O)n4C)CC3)CC2)C1)C(C)C [Compound 42] | 89.9 | 37 | –

Further compounds by falling IC50 [1], results first:

IC50 [1] [nM] | GI50 [2, 3] [nM] | SMILES | GI50 [2] [nM]
616 | 644 | CCN(C(=O)c1cc(F)ccc1Oc1nncnc1N1CC2(CCN(CC3(N(C)C(=O)COC)CC3)CC2)C1)C(C)C [Compound 144, N-ethyl-5-fluoro-N-isopropyl-2-((5-(7-((1-(2-methoxy-N-methylacetamido)cyclopropyl)methyl)-2,7-diazaspiro[3.5]nonan-2-yl)-1,2,4-triazin-6-yl)oxy)benzamide] | –
357 | 369 | CCN(C(=O)c1cc(F)ccc1Oc1nncnc1N1CC2(CCN(Cc3ccc4c(cc(C(=O)NC)n4CCO)c3C)CC2)C1)C(C)C [Compound 152, 5-((2-(6-(2-(ethyl(isopropyl)carbamoyl)-4-fluorophenoxy)-1,2,4-triazin-5-yl)-2,7-diazaspiro[3.5]nonan-7-yl)methyl)-1-(2-hydroxyethyl)-N,4-dimethyl-1H-indole-2-carboxamide] | –
4.9 | 49 | CCN(C(=O)c1cc(F)ccc1Oc1nncnc1N1CC(C2(N(CCO)Cc3ccc4[nH]c(C#N)cc4c3C)CC2)C1)C(C)C [Compound 163] | –
2 | 4 | C=Cc1ccc(N2CCC(CN3CCC4(CC3)CN(c3ncnnc3Oc3ccc(F)cc3C(=O)N(CC)C(C)C)C4)CC2)nn1 [Compound 133, N-ethyl-5-fluoro-N-isopropyl-2-((5-(7-((1-(6-vinylpyridazin-3-yl)piperidin-4-yl)methyl)-2,7-diazaspiro[3.5]nonan-2-yl)-1,2,4-triazin-6-yl)oxy)benzamide] | –
